Results reported in US20100074870A1, “Probiotic infant products” (priority 2008, published 2010).

These compounds were tested on B. longum AH1206 (assay: Antibiotic sensitivity, minimum inhibitory concentration (MIC)). Details: antibiotic against B. longum AH1206; unit not given.
With `Cc1ncc([N+](=O)[O-])n1CCO` [metronidazole] the “minimum inhibitory concentration (MIC)” value was 0.38.
For `CN[C@H](CC(C)C)C(=O)N[C@H]1C(=O)N[C@@H](CC(N)=O)C(=O)N[C@H]2C(=O)N[C@H]3C(=O)N[C@H](C(=O)N[C@H](C(=O)O)c4cc(O)cc(O)c4-c4cc3ccc4O)[C@H](O)c3ccc(c(Cl)c3)Oc3cc2cc(c3O[C@@H]2O[C@H](CO)[C@@H](O)[C@H](O)[C@H]2O[C@H]2C[C@](C)(N)[C@H](O)[C@H](C)O2)Oc2ccc(cc2Cl)[C@H]1O` [vancomycin], the “minimum inhibitory concentration (MIC)” value was 0.75.
In the case of `CCC[C@@H]1C[C@@H](C(=O)N[C@@H]([C@H]2O[C@H](SC)[C@H](O)[C@@H](O)[C@H]2O)[C@H](C)Cl)N(C)C1` [clindamycin], the “minimum inhibitory concentration (MIC)” value is reported as 0.32.
